According to patent US7129258B2, “Substituted benzoxazoles as estrogenic agents” (priority 2001, dated 2006):
Several values for one entry are separate records, joined by “and”; a condition that tells them apart may be missing. Equal entries are not always repeated. Marks after values point to notes of the source that are not given here.

How the values were obtained:
[1] = system: Sexually immature Sprague-Dawley rats (uterine weight); assay: Rat uterotrophic test procedure (Procedure 1); format: in vivo; conditions: 0.06 μg/rat s.c., days 19-21, alone
morphine-addicted rats = assay: Rat hot flush test procedure (tail skin temperature after naloxone); format: in vivo; conditions: 0.3 mg/kg
From the text: Rat Hot Flush Test Procedure
The effect of test compounds on hot flushes can be evaluated in a standard pharmacological test procedure which measures the ability of a test compound to blunt the increase in tail skin temperature which occurs as morphine-addicted rats are acutely withdrawn from the drug using naloxone [Merchenthaler, et al., Maturitas 30: 307–16 (1998)]. It can also be used to detect estrogen receptor antagonist activity by co-dosing test compound with the reference estrogen. The following data were obtained from representative compounds of the invention (Table (7))

[2] = system: Lewis rats, Freund's Adjuvant-Complete induced arthritis; assay: Lewis rat adjuvant-induced arthritis, treatment test procedure; format: in vivo; conditions: Treatment protocol, s.c. daily, begun Day 8 after adjuvant injection
HLA-B27 rats = assay: HLA rat test procedure for inflammatory bowel disease (stool score 3 = diarrhea, 2 = soft stool, 1 = normal stool; colon histology); format: in vivo
[3] = system: ovariectomized Sprague-Dawley rats (proximal tibia); assay: Bone mineral density in the ovariectomized rat; format: in vivo; conditions: 5 weeks
[4] = system: casein kinase II mRNA in mammary fat pad; assay: Mammary end bud test procedure (rat mammotrophic assay); format: in vivo
Protocol: Evaluation in the Mammary End Bud Test Procedure
Estrogens are required for full ductal elongation and branching of the mammary ducts, and the subsequent development of lobulo-alveolar end buds under the influence of progesterone. In this test procedure, the mammotrophic activity of selected compounds of the invention was evaluated according to the following standard pharmacological test procedure. Twenty-eight day old Sprague-Dawley rats (Taconic Farms) were ovariectomized and rested for nine days. Animals were housed under a 12-hour light/dark cycle, fed a casein-based Purina Laboratory Rodent Diet 5K96 (Purina, Richmond, Ind.) and allowed free access to water. […] The following results were obtained for representative compounds of the invention (Table (8)).

[5] = system: Sexually immature 129 SvE mice (uterine weight); assay: Mouse uterotrophic test procedure (Procedure 2); format: in vivo; conditions: 50 mg/kg s.c., days 22-25
[6] = system: Lewis rats, Freund's Adjuvant-Complete induced arthritis; assay: Lewis rat adjuvant-induced arthritis, inhibition test procedure; format: in vivo; conditions: Inhibition protocol, s.c. daily from Day 1
[7] = system: human endometrial tissue implanted into ovariectomized athymic nude mice; assay: Endometriosis test procedure; format: in vivo, mouse; conditions: 10 mg/kg oral daily
Protocol: Evaluation in an Endometriosis Standard Pharmacologic Test Procedure This procedure is slightly modified from a published method [Bruner-Tran. et al., Journal of Clinical Investigation 99: 2851–2857. (1997)]. […] Lesions are allowed to establish for at least 10 days, then oral daily dosing begins and continues for at least 15 days. It should be noted that all mice have visible lesions at the start of dosing. At necropsy the number of mice with lesions is determined as well as the lesions per mouse.

[8] = Study B colon histology, oral 4 weeks, 10 mg/kg days 1–14 then 20 mg/kg, mean ± SD
[9] = Study C colon histology, oral 7 weeks, 10 mg/kg days 1–18 then 20 mg/kg, mean ± SD
[10] = Study C colon histology, oral 7 weeks, 10 mg/kg days 1–24 then 20 mg/kg, mean ± SD

## C#C[C@]1(O)CC[C@H]2[C@@H]3CCc4cc(O)ccc4[C@H]3CC[C@@]21C [17α-ethinyl, 17β-estradiol, 17α-ethinyl-17β-estradiol]
[1]
  mean uterine weight ± SEM: 104.7 ± 5.4 mg and 85.5 ± 3.1 mg
morphine-addicted rats
  Temperature change 15 minutes after naloxone injection (mean ± SEM): 2.12 ± 1.14

## C=Cc1cc(O)cc2nc(-c3ccc(O)cc3)oc12 [Example 27, 2-(4-Hydroxyphenyl)-7-vinyl-1,3-benzoxazol-5-ol]
[2]; Day 8
  Joint inflammation score (maximal score per day 12): 5.00
[2]; Day 15
  Joint inflammation score (maximal score per day 12): 2.00
[2]; Day 16
  Joint inflammation score (maximal score per day 12): 2.00
[2]; Day 17
  Joint inflammation score (maximal score per day 12): 1.50

## C=Cc1cc(O)cc2nc(-c3ccc(O)cc3F)oc12 [Example 25, 2-(2-Fluoro-4-hydroxyphenyl)-7-vinyl-1,3-benzoxazol-5-ol]
HLA-B27 rats; [8]
  Fibrosis (0–2): 0.31 ± .13
  Inflammation (0–3): 1.50 ± 0.35
  Lesion depth (0–2): 0.44 ± 0.24
  Ulceration (0–2): 0.44 ± 0.24

## C=C(Br)c1cc(O)cc2nc(-c3ccc(O)cc3F)oc12 [Example 32, 7-(1-Bromovinyl)-2-(2-fluoro-4-hydroxyphenyl)-1,3-benzoxazol-5-ol]
[2]; Day 1
  Joint inflammation score (maximal score per day 12): 11.33
[2]; Day 2
  Joint inflammation score (maximal score per day 12): 10.83
[2]; Day 3
  Joint inflammation score (maximal score per day 12): 9.33
[2]; Day 4
  Joint inflammation score (maximal score per day 12): 8.00
[2]; Day 5
  Joint inflammation score (maximal score per day 12): 5.83
[2]; Day 6
  Joint inflammation score (maximal score per day 12): 3.33
[2]; Day 7
  Joint inflammation score (maximal score per day 12): 3.00
[2]; Day 8
  Joint inflammation score (maximal score per day 12): 2.50
[2]; Day 9
  Joint inflammation score (maximal score per day 12): 2.50
[2]; Day 10
  Joint inflammation score (maximal score per day 12): 2.50
[2]; Day 11
  Joint inflammation score (maximal score per day 12): 2.50
[2]; Day 12
  Joint inflammation score (maximal score per day 12): 2.50
[2]; Day 13
  Joint inflammation score (maximal score per day 12): 2.50
[2]; Day 14
  Joint inflammation score (maximal score per day 12): 2.50
[2]; Day 15
  Joint inflammation score (maximal score per day 12): 2.00
[2]; Day 16
  Joint inflammation score (maximal score per day 12): 1.33
[2]; Day 17
  Joint inflammation score (maximal score per day 12): 1.00

## Oc1cc(Br)c2oc(-c3ccc(O)c(F)c3)nc2c1 [Example 21, 7-Bromo-2-(3-fluoro-4-hydroxyphenyl)-1,3-benzoxazol-5-ol]
[3]; 10 mg/kg s.c.
  Total Bone Mineral Density (mean ± SEM): 501.40 ± 11.97 mg/mL
  Trabecular Bone Mineral Density (mean ± SEM): 312.34 ± 19.73 mg/mL
HLA-B27 rats; [9]
  Fibrosis (0–2): 0.56 ± 0.32
  Lesion depth (0–2): 0.75 ± 0.50
HLA-B27 rats; Study C colon histology, oral 7 weeks, 10 mg/kg then 20 mg/kg, mean ± SD
  Ulceration (0–2): 0.81 ± 0.47
HLA-B27 rats; Study C, oral, 10 mg/kg then 20 mg/kg
  scores on all disease parameters vs vehicle-treated rats (in words): not statistically significant, were lower

## C[C@]12CC[C@@H]3c4ccc(O)cc4CC[C@H]3[C@@H]1CC[C@@H]2O [17β-estradiol]
[4]; 0.1 mg/kg s.c. + Progesterone (30 mg/kg)
  Casein kinase II mRNA/18 S rRNA (mean ± SEM): 39.0 ± 5.36
[5]
  mean uterine weight ± SEM: 41.9 ± 2.9 mg and 40.0 ± 2.0 mg and 35.6 ± 4.4 mg and 40.5 ± 5.84 mg and 42.9 ± 4.8 mg and 41.7 ± 3.6 mg
[3]; 2 μg/rat s.c.
  Total Bone Mineral Density (mean ± SEM): 639.49 ± 14.47 mg/mL
  Trabecular Bone Mineral Density (mean ± SEM): 453.28 ± 24.93 mg/mL

## C=Cc1cc(O)cc2nc(-c3ccc(O)c(F)c3)oc12 [Example 24, 2-(3-Fluoro-4-hydroxyphenyl)-7-vinyl-1,3-benzoxazol-5-ol]
[2]; Day 4
  Joint inflammation score (maximal score per day 12): 9.50
[2]; Day 5
  Joint inflammation score (maximal score per day 12): 8.00
[2]; Day 6
  Joint inflammation score (maximal score per day 12): 7.00
[2]; Day 9
  Joint inflammation score (maximal score per day 12): 3.50
[2]; Day 17
  Joint inflammation score (maximal score per day 12): 2.00
[4]; 20 mg/kg s.c. + Progesterone (30 mg/kg)
  Casein kinase II mRNA/18 S rRNA (mean ± SEM): 3.98 ± 0.79
HLA-B27 rats; Study A, 50 mg/kg s.c. once per day
  Stool quality (in words): improved
HLA-B27 rats; [10]
  Fibrosis (0–2): 0*
  Inflammation (0–3): 0.69 ± 0.24
  Lesion depth (0–2): 0*
  Total score: 0.69 ± 0.24
  Ulceration (0–2): 0*
HLA-B27 rats; Study C, oral, 10 mg/kg days 1–24 then 20 mg/kg
  total disease score, intestinal histology (in words): significantly reduced
HLA-B27 rats; composite of two subcutaneous dosing studies, including Study A
  measurements of tissue injury, colon histology (in words): effective in reducing several measurements of tissue injury
[6]; Day 1
  Joint inflammation score (maximal score per day 12): 0.00
[6]; Day 2
  Joint inflammation score (maximal score per day 12): 1.00
[6]; Day 3
  Joint inflammation score (maximal score per day 12): 4.50
[6]; Day 15
  Joint inflammation score (maximal score per day 12): 3.00
[6]; Day 17
  Joint inflammation score (maximal score per day 12): 1.50
[7]; evaluated three times
  lesions at necropsy compared with mice dosed with vehicle: fewer lesions
[7]; Study 1
  lesions found per animal (mice with lesions): one
  mice with lesion regression: four of six
[7]; Study 1, all mice had lesions at start of dosing
  mice with any lesions at necropsy: two of six
